# Reference: patent US11161864B2, “Sting agonists” (Venenum Biodesign, LLC, priority 2018, dated 2021)
# pEC50, pIC50: −log10 of the molar value.
# Experiments:
# [1] = molecular target: wild-type (WT) truncated human STING protein, amino acids 155-379 (Homo sapiens (Human), UniProt Q86WV6, H232R); assay: Human WT STING [3H] 2′,3′-cGAMP scintillation proximity competition binding assay; details: read-out: Human WT Binding IC50
# How it was run: (§1)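 E. coli-expressed His-Avi-SUMO-tagged biotinylated STING, cobalt-purified, was mixed with compound, streptavidin SPA beads and [3H] 2′,3′-cGAMP in 50 mM Tris pH 7.5, 100 mM NaCl, 0.1% fatty-acid-free BSA. Incubation 18 h at room temperature, then scintillation proximity read of tracer displacement.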
# [2] = molecular target: AQ variant of truncated human STING protein, amino acids 155-379 (Homo sapiens (Human), UniProt Q86WV6, G230A/H232R/R293Q); assay: Human AQ STING [3H] 2′,3′-cGAMP scintillation proximity competition binding assay; details: read-out: Human AQ Binding IC50
# Sequence of AQ variant of truncated human STING protein, amino acids 155-379 (Q86WV6 155-379 G230A/H232R/R293Q): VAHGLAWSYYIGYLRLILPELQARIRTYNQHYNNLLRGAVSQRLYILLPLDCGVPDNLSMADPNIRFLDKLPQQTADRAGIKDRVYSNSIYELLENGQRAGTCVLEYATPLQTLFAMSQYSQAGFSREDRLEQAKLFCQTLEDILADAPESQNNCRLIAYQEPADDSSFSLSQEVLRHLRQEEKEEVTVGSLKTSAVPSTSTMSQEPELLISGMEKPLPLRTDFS
# How it was run: as §1
# human STING (WT) = human STING (WT) (Homo sapiens (Human), UniProt Q86WV6, H232R); assay: Thermal shift binding assay, human STING (WT); details: 100 μM compound, 5 μM STING protein; read-out: Human STING(WT) Tm Shift
# Sequence of human STING (WT) (Q86WV6 155-379 H232R): as the sequence (Q86WV6 155-379 G230A/H232R/R293Q) above, with A76G, Q139R counted along it
# [3] = molecular target: human STING (G230A-R293Q) (Homo sapiens (Human), UniProt Q86WV6, G230A/H232R/R293Q); assay: Thermal shift binding assay, human STING (AQ); details: 100 μM compound, 5 μM STING protein; read-out: Human STING(AQ) Tm Shift
# Sequence of human STING (G230A-R293Q) (Q86WV6 155-379 G230A/H232R/R293Q): as the sequence (Q86WV6 155-379 G230A/H232R/R293Q) above
# human STING (R232H) = human STING (R232H) (Homo sapiens, UniProt Q86WV6); assay: Thermal shift binding assay, human STING (R232H); details: 100 μM compound, 5 μM STING protein; read-out: Human STING(R232H) Tm Shift
# mouse STING = mouse STING (Mus musculus (Mouse), UniProt Q3TBT3); assay: Thermal shift binding assay, mouse STING; details: 100 μM compound, 5 μM STING protein; read-out: Mouse STING Tm Shift
# Sequence of mouse STING (Q3TBT3 154-378): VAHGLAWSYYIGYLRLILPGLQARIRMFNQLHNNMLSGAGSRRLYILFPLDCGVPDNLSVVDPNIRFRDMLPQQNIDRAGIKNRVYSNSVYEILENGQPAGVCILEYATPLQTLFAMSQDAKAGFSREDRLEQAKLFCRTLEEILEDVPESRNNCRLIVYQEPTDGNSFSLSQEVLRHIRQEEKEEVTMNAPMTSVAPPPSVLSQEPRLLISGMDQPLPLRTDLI
# [4] = system: STING pathway, THP1 cells; assay: Human IFN-α/β induction assay (THP1 supernatants on HEK-Blue IFN-α/β reporter cells); type: cell-based; details: THP1 cells 5 hrs, HEK-Blue reporter cells 24 hrs
# Method: Genetically engineered human type-1 Interferons (IFN-α/β) sensor cells-HEK Blue™ IFNα/β cells (Invivogen) were employed to measure the type-1 IFNs produced by THP1 cells that are treated with activators of STING. The human embryonic (HEK) Blue™ cells are specially designed to monitor the activation of JAK/STAT pathway induced by type 1 IFNs. Briefly, THP1 cells are treated with compounds for 5 hrs. In the second step, supernatants of THP1 cells are transferred to HEK Blue™ IFNα/β reporter cells and incubated for 24 hrs. The secreted embryonic alkaline phosphatase (SEAP) activity in the supernatants of HEK blue IFNα/3 reporter cells is measured and used to determine the quantities of IFNs.
# HEK-Blue IFN-α/β reporter cells (Invivogen) were used to measure the secretion of IFN-α/β into culture supernatants of THP1 cells following STING pathway activation. In the first step, THP1 cells were cultured in presence of STING activators for 5 hrs at 37° C., in a 5% CO2 tissue culture incubator, which facilitates the release of IFN-α/β into the supernatants. In the second step, cell supernatants from THP1 cells were transferred to HEK-Blue IFN-α/β reporter cells and incubated at 37° C., in a 5% CO2 incubator for 24 hrs. HEK-Blue IFN-α/β reporter cells are specifically designed to monitor the activation of JAK-STAT pathway activation by type 1 IFNs. These cells express a secreted embryonic alkaline phosphatase (SEAP) reporter gene under the control of ISG54 promoter, which is a well-known interferon stimulatory gene activated by type 1 IFNs. Upon IFN-α/β stimulation, HEK-Blue IFN-α/β reporter cells activate the JAK-STAT pathway and subsequently the expression of the reporter gene. SEAP which is secreted in the supernatant is easily detectable using alkaline phosphatase detection medium (Quanti-Blue reagent from Invivogen).
# These assays were run by adding 2 μL of compound stock solution to tissue culture treated 384-well plates with electronic pipettes. Compounds were diluted in autoclaved sterile water, initially spotted on the intermediate dilution plate and then to the assay plate. […]
# [5] = system: STING signaling, RAW-Dual reporter cells; assay: Measurement of mouse IFN-β (ELISA); type: cell-based; details: Mus musculus, […]
# From the text: Mouse Interferon-β (IFN-β) in the supernatants of murine macrophages treated with STING activators was quantified using sandwich enzyme linked immunosorbent assay (ELISA). Briefly, IFN-β binds to plates coated with antibody and detection is accomplished using a detection antibody followed by streptavidin conjugated to horseradish peroxidase. Tetramethyl-benzidine is used as the substrate in this kit (PBL Assay Science). […] In this invention, mouse IFN-β ELISA is used to determine the potency of compound on STING pathway activation in mouse macrophages.
# Murine macrophage derived cell line RAW-Dual reporter cells (Invivogen) were used to measure the IFN-β produced by STING signaling activation. Briefly, 20,000 cells in 27 μL were seeded into tissue culture treated 384-well plate that contained 3 μL of test compound. Cells were incubated at 37° C., in a 5% CO2 incubator for 5.5 hours. Supernatants from treated cells were diluted 20-fold and prior to measurement of IFN-β levels using ELISA kit (PBL Assay Science). 100 μL of diluted sample was added to ELISA plate. Plates were incubated at RT for 1 hour with shaking at 650 rpm. Post incubation, samples were aspirated from wells and the wells were washed 4 times. Diluted antibody (50 μL) was added to plates and incubated at RT for 30 minutes with shaking, followed by aspiration of antibody and 4× washes. Diluted HRP (horseradish peroxidase) solution (50 μL) was added and incubated for 10 minutes, followed by aspiration of the solution and 4× wash steps. After the final wash steps, plates were incubated with 100 μL of TMB (tetramethyl benzidine) substrate for 10 minutes, followed by addition of 100 μL of stop solution and plates were read on Envision plate reader for optical density.
# [6] = system: STING pathway genes, THP1 Dual (HAQ) human cells; assay: qRT-PCR assay, THP1 Dual (HAQ) human cells; type: cell-based
# MC-38 tumor [7] = assay: MC-38 tumor bearing mice treated with Example 1C and anti-PD-1, anti-PD-L1, anti-CTLA4; type: in vivo, C57BL/6J mice; details: for #Tumor Free Mice after Treatment: 10 animals/group
# From the text: The animals were terminated when the tumor size reached 2,000 mm^3.
# MC-38 tumor [8] = assay: Treatment of MC-38 tumors with Example 1C and radiotherapy; type: in vivo, C57BL/6J mice; details: for #Tumor Free Mice after Treatment: 10 animals/group
# From the text: Tumors grew for 7 days to an average size of 100 mm^3. […] On Days −2, −1 and 0 received 5 Gy of radiation targeted to the tumor using the Small Animal Radiation Research Platform (SARRP) manufactured by Xstrahl Inc. Radiotherapy treatments were given according to the outline in Table 18. […] Radiotherapy treatments were given according to the outline in Table 19.
# MC-38 tumor [9] = assay: MC-38 tumor bearing mice treated with Example 1C and anti-PD-1
# CT-26 tumor = CT-26 tumor bearing mice, intra-tumoral treatment and re-challenge; details: for Number of surviving mice: 50 μg intra-tumoral Days 0, 3, 7; for Number of surviving mice in the re-challenge: mice with complete regression after 50 μg, re-challenged with CT-26, no further treatment
# [10] = CTLA4 + PD-L1 (5 + 5 mg/kg) + 5 μg Example 1C
# [11] = Iso Ab (10 mg/kg) + 5 μg Example 1C
# [12] = PD1 + PD-L1 (5 + 5 mg/kg) + 5 μg Example 1C
# [13] = Example 1C 5 μg IT Day 0, 3, 7, 14, no RT
# [14] = RT (5 Gy) Day −1, 0 / Example 1C 5 μg IT Day 0, 3, 7, 14
# [15] = RT (5 Gy) Day −2, −1, 0 / Example 1C 5 μg IT Day 0, 3, 7, 14
# Sequence of wild-type (WT) truncated human STING protein, amino acids 155-379 (Q86WV6 155-379 H232R): as the sequence (Q86WV6 155-379 G230A/H232R/R293Q) above, with A76G, Q139R counted along it
compound,measurement,setting,value
"Nc1nc2c(ncn2[C@@H]2O[C@@H]3COP(=O)(S)OCCn4c(nc5cncnc54)COP(=O)(S)O[C@@H]2[C@@H]3F)c(=O)[nH]1 (single isomer, unassigned) [Example 1C]",pIC50,[1],> 6.00
same,pIC50,[2],> 6.00
same,ΔTm at 100 µM,human STING (WT),10.1 to 20 °C
same,ΔTm at 100 µM,[3],> 20 °C
same,ΔTm at 100 µM,human STING (R232H),5 to 10 °C
same,ΔTm at 100 µM,mouse STING,> 20 °C
same,pEC50,[4],> 5.30
same,pEC50,[5],> 5.30
same,increase in CXCL10,[6],1000 fold
same,increase in IL-6 compared to Control,[6],300 fold
same,increase of IFN-β mRNA compared to ADU-S100,[6],30 fold
same,increase of IFN-β mRNA compared to Control,[6],4000 fold
same,#Tumor Free Mice after Re-challenge,MC-38 tumor [7]; [10],6/6
same,#Tumor Free Mice after Treatment,MC-38 tumor [7]; [10],6/6
same,#Tumor Free Mice after Re-challenge,MC-38 tumor [7]; [11],1
same,#Tumor Free Mice after Treatment,MC-38 tumor [7]; [11],2
same,#Tumor Free Mice after Re-challenge,MC-38 tumor [7]; [12],5
same,#Tumor Free Mice after Treatment,MC-38 tumor [7]; [12],8
same,#Tumor Free Mice after Re-challenge,MC-38 tumor [8]; [13],0/0
same,#Tumor Free Mice after Treatment,MC-38 tumor [8]; [13],0/0
same,#Tumor Free Mice after Re-challenge,MC-38 tumor [8]; [14],3
same,#Tumor Free Mice after Treatment,MC-38 tumor [8]; [14],4
same,#Tumor Free Mice after Re-challenge,MC-38 tumor [8]; [15],7
same,#Tumor Free Mice after Treatment,MC-38 tumor [8]; [15],8
same,Number of surviving mice,"MC-38 tumor [9]; 5 μg Example 1C + 10 mg/kg Anti-PD-1, Day 0",10/10
same,Number of surviving mice,"MC-38 tumor [9]; 5 μg Example 1C + 10 mg/kg Anti-PD-1, Day 3",10/10
same,Number of surviving mice,"MC-38 tumor [9]; 5 μg Example 1C + 10 mg/kg Anti-PD-1, Day 6",10/10
same,Number of surviving mice,"MC-38 tumor [9]; 5 μg Example 1C + 10 mg/kg Anti-PD-1, Day 10",10/10
same,Number of surviving mice,"MC-38 tumor [9]; 5 μg Example 1C + 10 mg/kg Anti-PD-1, Day 14",10/10
same,Number of surviving mice,"MC-38 tumor [9]; 5 μg Example 1C + 10 mg/kg Anti-PD-1, Day 17",10/10
same,Number of surviving mice,"MC-38 tumor [9]; 5 μg Example 1C + 10 mg/kg Anti-PD-1, Day 21",10/10
same,Number of surviving mice,"MC-38 tumor [9]; 5 μg Example 1C + 10 mg/kg Anti-PD-1, Day 24",10/10
same,Number of surviving mice,"MC-38 tumor [9]; 5 μg Example 1C + 10 mg/kg Anti-PD-1, Day 27",9/10
same,Number of surviving mice,"MC-38 tumor [9]; 5 μg Example 1C + 10 mg/kg Anti-PD-1, Day 30",8/10
same,Number of surviving mice,"MC-38 tumor [9]; 5 μg Example 1C + 10 mg/kg Anti-PD-1, Day 34",7/10
same,Number of surviving mice,"MC-38 tumor [9]; 5 μg Example 1C intra-tumoral Days 0, 3, 7, Day 0",10/10
same,Number of surviving mice,"MC-38 tumor [9]; 5 μg Example 1C intra-tumoral Days 0, 3, 7, Day 3",10/10
same,Number of surviving mice,"MC-38 tumor [9]; 5 μg Example 1C intra-tumoral Days 0, 3, 7, Day 6",10/10
same,Number of surviving mice,"MC-38 tumor [9]; 5 μg Example 1C intra-tumoral Days 0, 3, 7, Day 10",10/10
same,Number of surviving mice,"MC-38 tumor [9]; 5 μg Example 1C intra-tumoral Days 0, 3, 7, Day 14",10/10
same,Number of surviving mice,"MC-38 tumor [9]; 5 μg Example 1C intra-tumoral Days 0, 3, 7, Day 17",10/10
same,Number of surviving mice,"MC-38 tumor [9]; 5 μg Example 1C intra-tumoral Days 0, 3, 7, Day 21",10/10
same,Number of surviving mice,"MC-38 tumor [9]; 5 μg Example 1C intra-tumoral Days 0, 3, 7, Day 24",10/10
same,Number of surviving mice,"MC-38 tumor [9]; 5 μg Example 1C intra-tumoral Days 0, 3, 7, Day 27",7/10
same,Number of surviving mice,"MC-38 tumor [9]; 5 μg Example 1C intra-tumoral Days 0, 3, 7, Day 30",3/10
same,Number of surviving mice,"MC-38 tumor [9]; 5 μg Example 1C intra-tumoral Days 0, 3, 7, Day 34",1/10
same,Number of surviving mice,CT-26 tumor; Day 0,10/10
same,Number of surviving mice,CT-26 tumor; Day 3,10/10
same,Number of surviving mice,CT-26 tumor; Day 7,10/10
same,Number of surviving mice,CT-26 tumor; Day 10,10/10
same,Number of surviving mice,CT-26 tumor; Day 14,10/10
same,Number of surviving mice,CT-26 tumor; Day 17,10/10
same,Number of surviving mice,CT-26 tumor; Day 20,10/10
same,Number of surviving mice,CT-26 tumor; Day 23,10/10
same,Number of surviving mice,CT-26 tumor; Day 35,8/10
same,Number of surviving mice in the re-challenge,CT-26 tumor; Rechallenge Day 0,8/8
same,Number of surviving mice in the re-challenge,CT-26 tumor; Rechallenge Day 7,8/8
same,Number of surviving mice in the re-challenge,CT-26 tumor; Rechallenge Day 11,8/8
same,Number of surviving mice in the re-challenge,CT-26 tumor; Rechallenge Day 14,8/8
same,Number of surviving mice in the re-challenge,CT-26 tumor; Rechallenge Day 17,8/8
same,Number of surviving mice in the re-challenge,CT-26 tumor; Rechallenge Day 20,8/8
same,Number of surviving mice in the re-challenge,CT-26 tumor; Rechallenge Day 24,8/8
same,Number of surviving mice in the re-challenge,CT-26 tumor; Rechallenge Day 27,8/8
same,Number of surviving mice in the re-challenge,CT-26 tumor; Rechallenge Day 30,8/8
same,Number of surviving mice in the re-challenge,CT-26 tumor; Rechallenge Day 33,8/8
